Laboratory results reported in patent US9657002B2, “Oxindole derivatives carrying an oxetane substituent and use thereof for treating vassopressin-related diseases” (AbbVie Deutschland GmbH & Co. KG, priority 2013, dated 2017).
Read-outs that look alike come from different tables or passages of the source.

Legend:
[1] = target: T1, human vasopressin V1b receptor (Homo sapiens, UniProt P47901); test: biochemical
T1 sequence (P47901 1-424): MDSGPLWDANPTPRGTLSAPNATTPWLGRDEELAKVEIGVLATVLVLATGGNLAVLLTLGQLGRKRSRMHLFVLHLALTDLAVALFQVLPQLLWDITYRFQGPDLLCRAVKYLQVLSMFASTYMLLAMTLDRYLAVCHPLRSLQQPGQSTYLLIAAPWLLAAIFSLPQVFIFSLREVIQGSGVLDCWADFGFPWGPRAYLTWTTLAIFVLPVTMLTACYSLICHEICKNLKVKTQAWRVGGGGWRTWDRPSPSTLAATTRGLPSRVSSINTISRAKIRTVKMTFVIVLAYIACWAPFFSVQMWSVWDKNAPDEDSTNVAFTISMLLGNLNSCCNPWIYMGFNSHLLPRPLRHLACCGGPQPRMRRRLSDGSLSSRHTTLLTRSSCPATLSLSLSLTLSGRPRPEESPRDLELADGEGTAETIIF

[2] = test system: stress-induced ACTH release; test: Stress-induced ACTH release; type: in vivo, NMRI mice; conditions: mice, restraint stress, i.p. 1 hour before; at 10 and 30 mg/kg
Excerpt: (§1) Male NMRI mice (Janvier, Le Genest-St-Isle, France) were used for stress-induced Adrenocorticotropic hormone (ACTH) release. Adult male Wistar rats (175-220 g body weight upon arrival) were obtained from Harlan Inc. (Indianapolis, Ind.). For the forced swim test, male Sprague Dawley rats (100-120 g body weight upon arrival) were obtained from Janvier (Le Genest-St-Isle, France). The animals were acclimatized to the animal facilities for at least one week before the start of the experimental procedures. Animals were maintained in a controlled environment on a 12:12 hour light dark schedule (lights on 06:00 h for rats in Vogel conflict test and 05:30 h for rats in forced swim test). Experimental procedures took place during the illuminated phase of the light/dark cycle. Food and water were available ad libitum, except for the Vogel conflict test, where the animals were submitted to a water deprivation regimen as described below. […]
The blood was collected in 1.3 mL blood sampling vials containing potassium EDTA (Sarstedt, Nümbrecht, Germany) and […] aprotinin solution (saline solution, 3-7 TIU [trypsin inhibitor units]/mg protein; Sigma-Aldrich, Germany). […] ACTH concentrations were measured by an ELISA (enzyme-linked immuno sorbent assay) for ACTH (IBL Hamburg, Germany). […]

[3] = target: human vasopressin V1a receptor (Homo sapiens, UniProt P37288); test: Vasopressin V1a receptor binding assay; conditions: selectivity quotient, human V1a vs human V1b
[4] = test system: Sprague Dawley rats; test: Forced swim test; type: in vivo; conditions: i.p. 24, 4 and 0.5 hours before testing, at 10 mg/kg
Excerpt: as §1
The forced swim test consisted of a pre-test and a test swim. […] Test swims were recorded on videotape and subsequently used for analysis. […]

[5] = test system: Wistar rats; test: Vogel conflict test; type: in vivo; conditions: i.p. 30 minutes before the test, at 10 and 30 mg/kg
Excerpt: as §1
The Vogel conflict test is a well-validated animal model to detect compounds with anxiolytic properties. […] The number of punished responses was automatically recorded for each rat during 5 min of testing. […]

[6] = target: T1, human vasopressin V1b receptor; conditions: read-out: Ki(h-V1b)*, CHO-K1 membranes, 3H-AVP displacement

Sequence of human vasopressin V1a receptor (P37288 whole entry): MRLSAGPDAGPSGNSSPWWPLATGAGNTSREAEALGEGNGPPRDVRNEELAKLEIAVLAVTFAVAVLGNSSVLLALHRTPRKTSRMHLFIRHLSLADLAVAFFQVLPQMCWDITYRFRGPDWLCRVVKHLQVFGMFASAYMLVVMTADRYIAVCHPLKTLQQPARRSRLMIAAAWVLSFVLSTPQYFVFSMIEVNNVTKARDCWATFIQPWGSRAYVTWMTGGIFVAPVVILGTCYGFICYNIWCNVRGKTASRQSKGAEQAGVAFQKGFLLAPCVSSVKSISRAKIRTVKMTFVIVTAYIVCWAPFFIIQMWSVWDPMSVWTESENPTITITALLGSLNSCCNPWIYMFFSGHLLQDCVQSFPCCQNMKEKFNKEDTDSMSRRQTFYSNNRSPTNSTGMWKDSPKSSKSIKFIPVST

Compound	Ki [1] [nM]	stress-induced ACTH release [2]	Ki(h-V1a)/Ki(h-V1b) [3]	latency to immobility in the forced swim test (antidepressant-like effect) [4]	punished responses in Vogel conflict (anxiolytic-like efficacy) [5]	Ki [6] [nM]
COc1ccc(S(=O)(=O)N2C(=O)[C@@](NC(=O)N3CCN(C4CCN(C5COC5)CC4)CC3)(c3cccnc3OC)c3cc(C#N)ccc32)c(OC)c1 [Example 21, N-[(3S)-5-cyano-1-(2,4-dimethoxyphenyl)sulfonyl-3-(2-methoxy-3-pyridyl)-2-oxo-indolin-3-yl]-4-[1-(oxetan-3-yl)-4-piperidyl]piperazine-1-carboxamide]	10 to 100	significantly blocked the stress response	+++ (>75)	significant antidepressant-like effect	significant effect	
(S)—N-(5-cyano-1-((2,4-dimethoxyphenyl)sulfonyl)-3-(2-ethoxypyridin-3-yl)-2-oxoindolin-3-yl)-4-(4-(oxetan-3-yl)piperazin-1-yl)piperidine-1-carboxamide [Example 2]			++ (25-75)			1 to 10
